pIC50: −log10 of the molar value. In brackets after ≈: the same amount, converted by molar mass. Activity calls are given as the source filed them. The calls are words filed in the database; no cut-off is given here.
Experiments:
[1] = Aqueous solubility of the compound at 1 mg measured after 12 hrs by shake flask method; format: physicochemical; details: water
[2] = target: Amyloid-beta precursor protein (Homo sapiens) (UniProt P05067); assay: Inhibition of self-induced amyloid beta 42 (unknown origin) aggregation at 10 uM incubated for 20 hrs by thioflavin-T fluorescence assay relative to control
[3] = target: Amyloid-beta precursor protein (Homo sapiens) (UniProt P05067); assay: Inhibition of self-induced amyloid beta 42 (unknown origin) fibril formation at 10 uM incubated for 6 hrs by thioflavin-T fluorescence assay relative to control
[4] = Cytotoxicity against rat PC12 cells measured after 24 hrs by WST8/PMS assay; format: cell-based, PC-12
[5] = Antioxidant activity assessed as DPPH radical scavenging activity measured after 30 mins; format: functional
[6] = target: Amyloid-beta precursor protein (Homo sapiens) (UniProt P05067); assay: Inhibition of self-induced amyloid beta 42 (unknown origin) aggregation at 1 uM incubated for 20 hrs by thioflavin-T fluorescence assay relative to control
[7] = target: Amyloid-beta precursor protein (Homo sapiens) (UniProt P05067); assay: Disaggregation of self-induced amyloid beta 42 (unknown origin) preformed fibrils assessed as length of nanorod-like fragment by TEM analysis
[8] = target: Amyloid-beta precursor protein (Homo sapiens) (UniProt P05067); assay: Disaggregation of self-induced amyloid beta 42 (unknown origin) preformed fibrils assessed as appearance of nanorod-like fragment by […] analysis

Sequence of Amyloid-beta precursor protein (Homo sapiens) (P05067 whole entry, the tested form may be a part): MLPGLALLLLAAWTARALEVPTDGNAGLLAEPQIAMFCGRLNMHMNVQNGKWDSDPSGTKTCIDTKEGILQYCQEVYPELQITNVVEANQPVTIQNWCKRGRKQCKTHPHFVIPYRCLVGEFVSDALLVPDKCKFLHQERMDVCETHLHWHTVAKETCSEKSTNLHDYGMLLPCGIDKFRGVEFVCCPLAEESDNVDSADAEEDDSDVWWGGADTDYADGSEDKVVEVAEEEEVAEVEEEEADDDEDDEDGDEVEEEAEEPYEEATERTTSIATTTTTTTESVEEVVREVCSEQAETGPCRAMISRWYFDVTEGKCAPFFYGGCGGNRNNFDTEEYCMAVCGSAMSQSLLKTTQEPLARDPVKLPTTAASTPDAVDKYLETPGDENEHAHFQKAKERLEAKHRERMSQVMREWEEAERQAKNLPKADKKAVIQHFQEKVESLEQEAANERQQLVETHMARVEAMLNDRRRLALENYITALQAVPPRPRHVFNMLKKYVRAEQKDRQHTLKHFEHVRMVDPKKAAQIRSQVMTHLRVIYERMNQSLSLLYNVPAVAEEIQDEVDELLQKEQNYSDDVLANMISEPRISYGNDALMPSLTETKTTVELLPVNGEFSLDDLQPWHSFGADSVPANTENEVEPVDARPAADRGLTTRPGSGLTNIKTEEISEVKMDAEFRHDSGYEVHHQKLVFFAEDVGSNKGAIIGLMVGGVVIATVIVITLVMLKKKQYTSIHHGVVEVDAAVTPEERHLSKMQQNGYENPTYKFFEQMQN

O=C(/C=C/c1cccc(O)c1)CC(=O)/C=C/c1cccc(O)c1O showed a solubility thermodynamic at 12 h [1] of 8.2 µM (≈ 2.66 µg/mL), an inhibition [2] of 100% and an inhibition [3] of 95 to 100%. The CC50 at 24 h [4] was 38 µM and the pIC50 [5] was 4.54.
For O=C(/C=C/c1ccc(O)c(O)c1)CC(=O)/C=C/c1cc(O)ccc1O, the solubility thermodynamic at 12 h [1] was 54 µM (≈ 18.4 µg/mL), the inhibition [6] was 57% and the inhibition [3] was 95 to 100%. The CC50 at 24 h [4] was 51 µM and the pIC50 [5] was 4.22.
Work on O=C(/C=C/c1ccccc1O)CC(=O)/C=C/c1cc(O)ccc1O yielded a solubility thermodynamic at 12 h [1] of 4.4 µM (≈ 1.43 µg/mL), an inhibition [6] of 80% and an inhibition [3] of 95 to 100%. The CC50 at 24 h [4] was 38 µM and the pIC50 [5] was 4.32.
In the case of O=C(/C=C/c1cccc(O)c1)/C=C/c1ccc(O)c(O)c1, the solubility thermodynamic at 12 h [1] was 60 µM (≈ 16.9 µg/mL), the inhibition [6] was 100% and the CC50 at 24 h [4] was > 100 µM. It also gave a pIC50 [5] of 4.15.
O=C(/C=C/c1ccc(O)cc1)CC(=O)/C=C/c1cc(O)ccc1O showed a solubility thermodynamic at 12 h [1] of 0.57 µM (≈ 0.185 µg/mL), an inhibition [6] of 53% and an inhibition [3] of 95 to 100%. It also gave a CC50 at 24 h [4] of 21 µM and a pIC50 [5] of 4.39.
For O=C(/C=C/c1ccccc1O)CC(=O)c1ccc(O)c(O)c1, the solubility thermodynamic at 12 h [1] was 77 µM (≈ 23 µg/mL), the inhibition [6] was 90% and the CC50 at 24 h [4] was > 90 µM. It also gave a pIC50 [5] of 4.80.
Molecule O=C(/C=C/c1cccc(O)c1O)c1cc(O)ccc1O has a solubility thermodynamic at 12 h [1] of 33 µM (≈ 8.98 µg/mL), an inhibition [6] of 98% and a CC50 at 24 h [4] of 89 µM. The pIC50 [5] was 4.32.
O=C(/C=C/c1ccc(O)cc1)/C=C/c1cccc(O)c1O showed a solubility thermodynamic at 12 h [1] of 120 µM (≈ 33.9 µg/mL), an inhibition [6] of 96% and a CC50 at 24 h [4] of 12 µM. The pIC50 [5] was 4.40.
In the case of O=C(/C=C/c1cc(O)ccc1O)CC(=O)c1ccc(O)c(O)c1, the solubility thermodynamic at 12 h [1] was 47 µM (≈ 14.8 µg/mL), the inhibition [6] was 98% and the CC50 at 24 h [4] was > 100 µM. The pIC50 [5] was 4.09.
For O=C(/C=C(O)/C=C/c1ccccc1O)/C=C/c1ccc(O)c(O)c1, the solubility thermodynamic at 12 h [1] was 31 µM (≈ 10.1 µg/mL) and the inhibition [6] was 62%.
Molecule O=C(/C=C/c1ccc(O)c(O)c1)/C=C/c1ccccc1O has a solubility thermodynamic at 12 h [1] of 111 µM (≈ 31.3 µg/mL), an inhibition [6] of 100% and a CC50 at 24 h [4] of 34 µM. For the same molecule, the pIC50 [5] was 4.21.
For O=C(/C=C/c1ccccc1O)CC(=O)/C=C/c1cccc(O)c1O, the solubility thermodynamic at 12 h [1] was 11 µM (≈ 3.57 µg/mL), the inhibition [6] was 92% and the inhibition [3] was 95 to 100%. It also gave a CC50 at 24 h [4] of 34 µM and a pIC50 [5] of 4.64.
O=C(/C=C/c1cccc(O)c1O)CC(=O)/C=C/c1cccc(O)c1O gave a solubility thermodynamic at 12 h [1] of 5.3 µM (≈ 1.8 µg/mL), an inhibition [6] of 93% and an inhibition [3] of 95 to 100%. The CC50 at 24 h [4] was 39 µM and the pIC50 [5] was 4.52.
For O=C(/C=C/c1cc(O)ccc1O)CC(=O)/C=C/c1cccc(O)c1O, the solubility thermodynamic at 12 h [1] was 100 µM (≈ 34 µg/mL), the inhibition [6] was 100% and the inhibition [3] was 95 to 100%. For the same molecule, the CC50 at 24 h [4] was 53 µM and the pIC50 [5] was 4.57.
In the case of O=C(/C=C/c1cccc(O)c1)CC(=O)/C=C/c1cc(O)ccc1O, the solubility thermodynamic at 12 h [1] was 5.8 µM (≈ 1.88 µg/mL), the inhibition [6] was 56% and the inhibition [3] was 95 to 100%. The CC50 at 24 h [4] was 15 µM and the pIC50 [5] was 4.06.
COc1cc(/C=C/C(=O)CC(=O)/C=C/c2ccc(O)c(OC)c2)ccc1O [CURCUMIN] showed a solubility thermodynamic at 12 h [1] of 0.19 µM (≈ 0.07 µg/mL), a CC50 at 24 h [4] of 42 µM and a pIC50 [5] of 4.35.
Molecule O=C(/C=C/c1cccc(O)c1)/C=C/c1cccc(O)c1O has a solubility thermodynamic at 12 h [1] of 184 µM (≈ 51.9 µg/mL), an inhibition [6] of 90% and a CC50 at 24 h [4] of 46 µM. It also gave a pIC50 [5] of 4.32.
O=C(/C=C/c1ccc(O)cc1)CC(=O)/C=C/c1cccc(O)c1O showed a solubility thermodynamic at 12 h [1] of 4.8 µM (≈ 1.56 µg/mL), an inhibition [2] of 100% and an inhibition [3] of 95 to 100%. For the same molecule, the CC50 at 24 h [4] was 8.5 µM and the pIC50 [5] was 4.57.
O=C(/C=C/c1ccc(O)c(O)c1)c1cc(O)ccc1O showed a solubility thermodynamic at 12 h [1] of 16 µM (≈ 4.36 µg/mL), an inhibition [6] of 85% and a CC50 at 24 h [4] of 80 µM. It also gave a pIC50 [5] of 4.41.
O=C(/C=C/c1ccc(O)c(O)c1)/C=C/c1cc(O)ccc1O gave a solubility thermodynamic at 12 h [1] of 123 µM (≈ 36.7 µg/mL), an inhibition [6] of 100% and a CC50 at 24 h [4] of 39 µM. It also gave a pIC50 [5] of 4.60.
Work on O=C(/C=C/c1ccccc1O)/C=C/c1cccc(O)c1O yielded a solubility thermodynamic at 12 h [1] of 151 µM (≈ 42.6 µg/mL), an inhibition [6] of 98% and a CC50 at 24 h [4] of 54 µM. For the same molecule, the pIC50 [5] was 4.00.
With O=C(/C=C/c1ccc(O)cc1)/C=C/c1ccc(O)c(O)c1 the solubility thermodynamic at 12 h [1] was 19 µM (≈ 5.36 µg/mL), the inhibition [6] was 75% and the CC50 at 24 h [4] was 12 µM. It also gave a pIC50 [5] of 4.62.
With O=C(/C=C/c1cc(O)ccc1O)CC(=O)c1cccc(O)c1O the solubility thermodynamic at 12 h [1] was 32 µM (≈ 10.1 µg/mL), the inhibition [6] was 100% and the CC50 at 24 h [4] was 63 µM. The pIC50 [5] was 4.55.
Molecule O=C(/C=C/c1cc(O)ccc1O)/C=C/c1cccc(O)c1O has a solubility thermodynamic at 12 h [1] of 271 µM (≈ 80.8 µg/mL), an inhibition [6] of 100% and a CC50 at 24 h [4] of 59 µM. The pIC50 [5] was 4.89, the Activity [7] was 50 to 500 nm and the Activity [8] was “Active”.
In the case of O=C(/C=C/c1ccc(O)c(O)c1)CC(=O)/C=C/c1cccc(O)c1O, the solubility thermodynamic at 12 h [1] was 3.8 µM (≈ 1.29 µg/mL), the inhibition [2] was 98% and the inhibition [3] was 95 to 100%. The CC50 at 24 h [4] was 16 µM and the pIC50 [5] was 4.72.
For O=C(/C=C/c1cccc(O)c1)CC(=O)c1ccc(O)c(O)c1, the solubility thermodynamic at 12 h [1] was 25 µM (≈ 7.46 µg/mL), the inhibition [6] was 85% and the CC50 at 24 h [4] was > 100 µM. The pIC50 [5] was 5.00.
Work on O=C(/C=C/c1cc(O)ccc1O)CC(=O)/C=C/c1cc(O)ccc1O yielded a solubility thermodynamic at 12 h [1] of 5 µM (≈ 1.7 µg/mL), an inhibition [6] of 99% and an inhibition [3] of 95 to 100%. It also gave a CC50 at 24 h [4] of 24 µM and a pIC50 [5] of 4.24.

From ChEMBL document CHEMBL4387774, “Design, synthesis, and evaluation of a water soluble C5-monoketone type curcumin analogue as a potent amyloid β aggregation inhibitor” (Bioorg Med Chem Lett, 2019)
